From paper PMC7893915, “Assessing cross-resistance within the pyrethroids in terms of their interactions with key cytochrome P450 enzymes and resistance in vector populations” (Parasites & Vectors, 2021)
Like-named read-outs stand apart in the source and are kept apart here.

Experiments:
CYP6P3 = details: cited from earlier work
CYP6Z3 = biological target: T1, CYP6Z3 (Anopheles gambiae, UniProt Q86LT6, H411Y/S209G/W396L); assay: Inhibition screening of pyrethroids, diethoxyfluorescein, CYP6Z3; type: biochemical
T1 sequence (Q86LT6 1-492 S209G/W396L/H411Y): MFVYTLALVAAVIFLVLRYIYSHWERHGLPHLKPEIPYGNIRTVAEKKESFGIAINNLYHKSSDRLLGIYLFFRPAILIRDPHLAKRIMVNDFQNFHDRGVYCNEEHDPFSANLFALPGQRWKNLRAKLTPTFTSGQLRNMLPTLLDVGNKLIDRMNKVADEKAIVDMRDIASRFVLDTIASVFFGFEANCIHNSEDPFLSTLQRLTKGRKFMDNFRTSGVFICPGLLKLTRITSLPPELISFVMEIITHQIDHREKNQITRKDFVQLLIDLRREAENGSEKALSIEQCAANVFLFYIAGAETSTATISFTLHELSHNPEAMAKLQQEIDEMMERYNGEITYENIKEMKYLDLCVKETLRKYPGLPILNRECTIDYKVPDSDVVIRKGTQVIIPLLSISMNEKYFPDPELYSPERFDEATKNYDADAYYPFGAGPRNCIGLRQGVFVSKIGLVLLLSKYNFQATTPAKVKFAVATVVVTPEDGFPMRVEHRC
T1 sequence (Q86QH5 1-679 partner): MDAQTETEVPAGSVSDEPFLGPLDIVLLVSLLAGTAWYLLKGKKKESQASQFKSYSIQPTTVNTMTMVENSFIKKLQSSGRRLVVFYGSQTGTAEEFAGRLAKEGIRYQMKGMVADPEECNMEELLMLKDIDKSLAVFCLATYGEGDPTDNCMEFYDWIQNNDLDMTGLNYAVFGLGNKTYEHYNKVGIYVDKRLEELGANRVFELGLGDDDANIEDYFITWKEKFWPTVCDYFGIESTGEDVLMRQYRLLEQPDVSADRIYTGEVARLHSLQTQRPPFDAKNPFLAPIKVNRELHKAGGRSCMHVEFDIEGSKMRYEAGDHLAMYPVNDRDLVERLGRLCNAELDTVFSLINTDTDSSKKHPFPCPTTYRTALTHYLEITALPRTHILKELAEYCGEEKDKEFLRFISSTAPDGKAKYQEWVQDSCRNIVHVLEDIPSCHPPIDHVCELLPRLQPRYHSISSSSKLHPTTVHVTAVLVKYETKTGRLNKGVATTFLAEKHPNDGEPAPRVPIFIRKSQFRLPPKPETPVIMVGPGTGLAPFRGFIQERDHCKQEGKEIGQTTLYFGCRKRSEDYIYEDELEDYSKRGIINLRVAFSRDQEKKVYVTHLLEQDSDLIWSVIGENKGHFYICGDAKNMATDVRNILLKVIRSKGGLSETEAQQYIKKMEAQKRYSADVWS
Text: Cytochrome P450 inhibition assays using fluorogenic probe substrates have become commonplace in drug discovery screening cascades and are a rapid method of screening for insecticide interactions with mosquito P450s to predict insecticide binding, metabolism, cross-resistance and synergism. In this study, the half maximal inhibitory concentration (IC50), which provides a value for inhibition of each P450 by each pyrethroid (also referred to as ‘binding affinity’), and the percentage depletion, which gives a value for metabolism of each pyrethroid by each P450 (also referred to as vulnerability to metabolic attack), were both included as parameters to establish a P450s structural activity relationship model. This model was used to understand both the chemistry of the pyrethroids and the interaction with mosquito P450s that function as monooxygenases in metabolic resistance, to predict cross-resistance liabilities in vivo. […] A low percentage depletion indicates low metabolism of the pyrethroid, which means that it may be less vulnerable to resistance mediated by P450s.
In addition, inhibition activity data for these pyrethroids exposed to CYP6Z3 from the An. gambiae Kisumu strain were also generated (Additional file 1).
1. Preparation of An. gambiae CYP6Z3 and cloning
Total RNA was extracted with Arcturus PicoPure Kit (Applied Biosystems, USA) from ten adult An. gambiae mosquitoes from the Kisumu strain [1]. Complementary DNA was prepared using Superscript III (Invitrogen) with an oligo (dT)20 primer and used as a template for amplifying full -length AgCyp6z3 with KOD DNA polymerase (Merk Chemicals) . The gene-specific primers used in these high -fidelity PCRs (Table S1) were designed according to the reference An. gambiae PEST CYP6Z3 genome sequence (Accession number AY193727) The PCR product was ligated into pGEM T-easy vector (Promega) and sequenced on both strands. Consistent with the high frequency of polymorphism in An. gambiae P450s [2](Martin Nature Ref) there were 36 single nucleotide polymorphism (SNPs) compared with the reference sequence, of which three produced amino acid changes, S209G, W396L, and H411Y. For expression, the ompA leader sequence (ompA) was engineered onto the amino - terminus of the AgCyp6z3 gene to direct the P450 into the E. coli […] during expression as previously described. The ompA-leader was fused to AgCyp6z3 cDNA in frame with AgCyp6z3 initiation codon by fusion PCR using High fidelity Phusion polymerase (Scientific). The ompA AgCyp6z3 fusion was flanked at the 5′ and 3′ ends with NdeI and EcoR1, respectively for ligation into NdeI/EcoRI linearised pB13 (pCWori+).
Table S1. Primers used for amplification of CYP6Z3 and in vitro functional characterisation […]
ompA+2 Forward […]
ompA+2 CYP6Z3 fusion […]
2. Preparation of membranes expressing P450 and AgCPR
To express functional P450, AgCyp6z3 cloned into pB13 plasmid was co-transformed into E. coli JM109 cells with An. gambiae NADPH-cytochrome P450 reductase (AgCPR-pACYC). The P450 and the AgCPR were previously fused with ompA and pelB leader sequences respectively to direct the expressed proteins to the inner bacterial periplasm in order to form functional monooxygenase complex. For P450 production, 200 mL E. coli cultures in Terrific Broth were incubated at 21°C with shaking at 120 RPM for 18–24 h after induction with 1 mM IPTG. Following expression, E. coli membranes containing CYP6Z3 were isolated and P450 and AgCPR content measured as previously described. Samples were stored in aliquots of 100 µL at −80°C. An. gambiae cytochrome b5 was prepared as described previously to supplement enzyme reactions at an 8:1 M ratio, b5: P450 [4].
3. Inhibition screening of pyrethroids.
Inhibition screening of pyrethroid inhibitors and IC50 calculations carried out according Yunta et al. […]

[1] = read-out: IC50 CYP6P3, inhibition of diethoxyfluorescein metabolism, footnote b, ref Yunta et al. 2019[10]

| SMILES | IC50 (CYP6P3; [1]) [µM] | IC50 (CYP6Z3) [µM] | IC50 (CYP6P3; read-out: IC50 CYP6P3, inhibition of diethoxyfluorescein metabolism, footnote a, ref Yunta et al. 2016[8]) [µM] | IC50 (CYP6P3) [µM] |
| --- | --- | --- | --- | --- |
| Cc1c(COC(=O)[C@@H]2[C@H](/C=C(\Cl)C(F)(F)F)C2(C)C)cccc1-c1ccccc1 (racemic) [Bifenthrin, bifenthrin] | 3.5 | 17 |  |  |
| CC1(C)[C@H](C(=O)O[C@H](C#N)c2cccc(Oc3ccccc3)c2)[C@@H]1/C=C(\Cl)C(F)(F)F (racemic) [λ-Cyhalothrin, λ-cyhalothrin] | 9.6 | 3.3 |  |  |
| CC1(C)[C@H](C(=O)O[C@H](C#N)c2cccc(Oc3ccccc3)c2)[C@@H]1C=C(Br)Br [Deltamethrin, deltamethrin] |  | 3.4 | 3.2 |  |
| CCOc1ccc(C(C)(C)COCc2cccc(Oc3ccccc3)c2)cc1 [Etofenprox, etofenprox] | 8.3 | 4.8 |  |  |
| CC1(C)C(C=C(Cl)Cl)C1C(=O)OCc1cccc(Oc2ccccc2)c1 (stereo not shown) [Permethrin, permethrin] |  | 3.7 |  | 6.8 |
